Reference: patent publication US7838674B2, “Tetracyclic lactame derivatives” (Novartis AG, priority 2007, dated 2010)
pIC50: −log10 of the molar value. Counter-ions that a name gives are not always drawn.

Each compound was assayed against human MK2 (Homo sapiens, UniProt P49137) (assay: MAPKAPK2 kinase assay (TR-FRET, Hsp27 peptide substrate)). Conditions: not given.
Sequence of human MK2 (P49137 whole entry): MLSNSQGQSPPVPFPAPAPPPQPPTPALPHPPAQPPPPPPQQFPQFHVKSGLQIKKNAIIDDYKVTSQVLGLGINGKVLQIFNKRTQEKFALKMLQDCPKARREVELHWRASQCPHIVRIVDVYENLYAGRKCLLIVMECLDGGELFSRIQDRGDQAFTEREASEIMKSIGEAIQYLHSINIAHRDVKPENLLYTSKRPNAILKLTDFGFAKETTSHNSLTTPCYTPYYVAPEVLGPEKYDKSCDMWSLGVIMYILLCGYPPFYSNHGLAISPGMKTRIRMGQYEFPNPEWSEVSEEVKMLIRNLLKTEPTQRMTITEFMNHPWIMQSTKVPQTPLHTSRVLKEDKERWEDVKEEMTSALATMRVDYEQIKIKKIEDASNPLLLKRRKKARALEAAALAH

pIC50	SMILES
7.74	COc1ccc(-c2ncc3c(n2)-c2[nH]c4c(c2CC3)C(=O)NC2(CNC2)C4)cc1 [Example 18, 2-(3-Amino-azetidin-3-ylmethyl)-8-(4-methoxy-phenyl)-4,5-dihydro-1H-1,7,9-triaza-cyclopenta[a]naphthalene-3-carboxylic acid lactame hydrochloride]
7.41	Cc1cncc(-c2cc3c(cn2)CCc2c-3[nH]c3c2C(=O)NC2(CC2)C3)c1 [Example 84, 2-(1-Amino-cyclopropylmethyl)-8-(5-methyl-pyridin-3-yl)-4,5-dihydro-1H-pyrrolo[2,3-f]isoquinoline-3-carboxylic acid lactam]
7.19	O=C1NC2(CCC2)Cc2[nH]c3c(c21)CCc1cnc(/C=C/c2ccccc2)cc1-3 [Example 4, 2-(1-Amino-cyclobutylmethyl)-8-((E)-styryl)-4,5-dihydro-1H-pyrrolo[2,3-f]isoquinoline-3-carboxylic acid lactame]
7.14	O=C1NC2(CC2)Cc2[nH]c3c(c21)CCc1cnc(-c2ccc(N4CCCCC4)nc2)cc1-3 [Example 83, 2-(1-Amino-cyclopropylmethyl)-8-(3,4,5,6-tetrahydro-2H-[1,2′]bipyridinyl-5′-yl)-4,5-dihydro-1H-pyrrolo[2,3-f]isoquinoline-3-carboxylic acid lactam]
7.96	O=C(NCc1ccccc1)c1cccc(-c2cc3c(cn2)CCc2c-3[nH]c3c2C(=O)NC2(CC2)C3)c1 [Example 276, 2-(1-Amino-cyclopropylmethyl)-8-(3-benzylcarbamoyl)-phenyl-4,5-dihydro-1H-pyrrolo[2,3-f]isoquinoline-3-carboxylic acid lactam]
7.08	O=C1NC2(CCC2)Cc2[nH]c3c(c21)CCc1cnc(-c2ccc(CN4CCOCC4)c(F)c2)cc1-3 [Example 110, 2-(1-Amino-cyclobutylmethyl)-8-(3-fluoro-4-morpholin-4-ylmethyl-phenyl)-4,5-dihydro-1H-pyrrolo[2,3-f]isoquinoline-3-carboxylic acid lactam]
7.70	COCCOc1ccc(-c2cc3c(cn2)CCc2c-3[nH]c3c2C(=O)NCC32CC2)cc1C#N [Example 309, 2-(2-Methoxy-ethoxy)-5-(7-oxo-10-spirocyclopropyl-6,7,8,9,10,11-hexahydro-5H-3,8,11-triaza-benzo[a]fluoren-2-yl)-benzonitrile]
7.85	CN1CC2(CNC(=O)c3c2[nH]c2c3CCc3cnc(-c4ccc(C(F)(F)F)nc4)cc3-2)C1 [Example 168, 2-(3-Aminomethyl-1-methyl-azetidin-3-yl)-8-(6-trifluoromethyl-pyridin-3-yl)-4,5-dihydro-1H-pyrrolo[2,3-f]isoquinoline-3-carboxylic acid lactam]
7.68	O=C1NCC2(CC2)c2[nH]c3c(c21)CCc1cnc(/C=C/c2ccccc2)cc1-3 [Example 2, 2-(1-Aminomethyl-cyclopropyl)-8-((E)-styryl)-4,5-dihydro-1H-pyrrolo[2,3-f]isoquinoline-3-carboxylic acid lactame]
8.05	CN1CCN(c2ccc(-c3cc4c(cn3)CCc3c-4[nH]c4c3C(=O)NCC43CC3)cc2C#N)CC1 [Example 306, 2-(4-Methyl-piperazin-1-yl)-5-(7-oxo-10-spirocyclopropyl-6,7,8,9,10,11-hexahydro-5H-3,8,11-triaza-benzo[a]fluoren-2-yl)-benzonitrile]
7.35	O=C1NC2(CC2)Cc2[nH]c3c(c21)CCc1cnc(-c2ccc(OC4CCOCC4)nc2)cc1-3 [Example 96, 2-(1-Amino-cyclopropylmethyl)-8-[6-(tetrahydro-pyran-4-yloxy)-pyridin-3-yl]-4,5-dihydro-1H-pyrrolo[2,3-f]isoquinoline-3-carboxylic acid lactam]
7.42	COc1ccc(-c2cc3c(cn2)CCc2c-3[nH]c3c2C(=O)NC2(CC2)C3)cn1 [Example 88, 2-(1-Amino-cyclopropylmethyl)-8-(6-methoxy-pyridin-3-yl)-4,5-dihydro-1H-pyrrolo[2,3-f]isoquinoline-3-carboxylic acid lactam]
7.80	COc1ccc(CNC(=O)c2cccc(-c3cc4c(cn3)CCc3c-4[nH]c4c3C(=O)NC3(CC3)C4)c2)cn1 [Example 274]
7.89	O=C1NC2(CNC2)Cc2[nH]c3c(c21)CCc1cnc(-c2cccc(F)c2)cc1-3 [Example 24, 2-(3-Amino-azetidin-3-ylmethyl)-8-(3-fluoro-phenyl)-4,5-dihydro-1H-pyrrolo[2,3-f]isoquinoline-3-carboxylic acid lactam hydrochloride]
7.70	C[C@H](NC(=O)c1cccc(-c2cc3c(cn2)CCc2c-3[nH]c3c2C(=O)NC2(CC2)C3)c1)c1ccccc1 [Example 275]

The compounds below were run against T1, MAPKAPK2 enzyme (HIS-MK2, Invitrogen PV4019) (Homo sapiens, UniProt P49137) (assay: Alternative MAPKAPK2 assay (Caliper microfluidic mobility shift, HSP27-peptide)). Conditions: HIS-MK2 0.013 nM, ATP 10 μM, 60 min at 30° C.
T1 construct: His; purchased Invitrogen PV4019
Assay type: biochemical

T1 sequence (P49137 whole entry): as above

pIC50	SMILES
7.82	CCN1CC2(C1)c1[nH]c3c(c1C(=O)NC21CC1)CCc1cnc(-c2ccccc2F)cc1-3 [Example 253, 2-[3-(1-Amino-cyclopropyl)-1-ethyl-azetidin-3-yl]-8-(2-fluoro-phenyl)-4,5-dihydro-1H-pyrrolo[2,3-f]isoquinoline-3-carboxylic acid lactam]
> 8.52	COc1ccc(-c2cc3c(cn2)CCc2c-3[nH]c3c2C(=O)NC2(CC2)C32CN(C)C2)cn1 [Example 255, 2-[3-(1-Amino-cyclopropyl)-1-methyl-azetidin-3-yl]-8-(6-methoxy-pyridin-3-yl)-4,5-dihydro-1H-pyrrolo[2,3-f]isoquinoline-3-carboxylic acid lactam]
8.10	COc1ccc(-c2ncc3c(n2)-c2[nH]c4c(c2CC3)C(=O)NCC42CNC2)cc1F [Example 268, 2-(3-Aminomethyl-azetidin-3-yl)-8-(3-fluoro-4-methoxy-phenyl)-4,5-dihydro-1H-1,7,9-triaza-cyclopenta[a]naphthalene-3-carboxylic acid lactan hydrochloride]
> 8.52	O=C1NCC2(CNC2)c2[nH]c3c(c21)CCc1cnc(-c2ccc(F)nc2)cc1-3 [Example 160, 2-(3-Aminomethyl-azetidin-3-yl)-8-(6-fluoro-pyridin-3-yl)-4,5-dihydro-1H-pyrrolo[2,3-f]isoquinoline-3-carboxylic acid lactam hydrochloride]
7.46	COc1ccc(-c2cc3c(cn2)CCc2c-3[nH]c3c2C(=O)N[C@@H]2C[C@H]32)cc1 (racemic) [Example 52, (+)-2-(2-Amino-cyclopropyl)-8-(4-methoxy-phenyl)-4,5-dihydro-1H-1,7-diaza-cyclopenta[a]naphthalene-3-carboxylic acid lactam]
7.04	Cc1ccc(-c2cc3c(cn2)CCc2c4c(n(C)c2-3)CC2(CN(C)C2)NC4=O)cn1 [Example 150, 2-(3-Amino-1-methyl-azetidin-3-ylmethyl)-8-(6-methyl-pyridin-3-yl)-1-methyl-4,5-dihydro-1H-pyrrolo[2,3-f]isoquinoline-3-carboxylic acid lactam]
7.54	CN1CCOc2cc(-c3cc4c(cn3)CCc3c5c(n(C)c3-4)CC3(CNC3)NC5=O)ccc21 [Example 145, 2-(3-Amino-azetidin-3-ylmethyl)-1-methyl-8-(4-methyl-3,4-dihydro-2H-benzo[1,4]oxazin-7-yl)-4,5-dihydro-1H-pyrrolo[2,3-f]isoquinoline-3-carboxylic acid lactam hydrochloride]
7.96	CN1CCN(c2ccc(-c3cc4c(cn3)CCc3c-4[nH]c4c3C(=O)NCC43CC3)cn2)CC1 [Example 316, 2-[6-(4-Methyl-piperazin-1-yl)-pyridin-3-yl]-10-spirocyclopropyl-5,6,8,9,10,11-hexahydro-3,8,11-triaza-benzo[a]fluoren-7-one]
7.68	O=C(NCc1ccccc1)c1ccc(-c2cc3c(cn2)CCc2c-3[nH]c3c2C(=O)NC2(CC2)C3)o1 [Example 282, 5-(9,9-Spirocyclopropyl-7-oxo-6,7,8,9,10,11-hexahydro-5H-3,8,11-triaza-benzo[a]fluoren-2-yl)-furan-2-carboxylic acid benzylamide]
7.46	Cc1ccc(-c2cc3c(cn2)CCc2c-3[nH]c3c2C(=O)NC2(CC2)C3)cn1 [Example 69, 2-(1-Amino-cyclopropylmethyl)-8-(6-methyl-pyridin-3-yl)-4,5-dihydro-1H-pyrrolo[2,3-f]isoquinoline-3-carboxylic acid lactam]
7.05	CN(C)c1ccc(-c2cc3c(cn2)CCc2c4c(n(C)c2-3)CC2(CNC2)NC4=O)cn1 [Example 147, 2-(3-Amino-azetidin-3-ylmethyl)-8-(6-dimethylamino-pyridin-3-yl)-1-methyl-4,5-dihydro-1H-pyrrolo[2,3-f]isoquinoline-3-carboxylic acid lactam hydrochloride]
7.64	Cn1c2c(c3c1-c1cc(-c4ccc(N5CCCCC5)nc4)ncc1CC3)C(=O)NC1(CNC1)C2 [Example 149, 2-(3-Amino-azetidin-3-ylmethyl)-8-(6-piperidinyl-pyridin-3-yl)-1-methyl-4,5-dihydro-1H-pyrrolo[2,3-f]isoquinoline-3-carboxylic acid lactam hydrochloride]
7.80	O=C1NCC2(CC2)c2[nH]c3c(c21)CCc1cnc(-c2cccnc2)cc1-3 [Example 125, 2-(1-Aminomethyl-cyclopropyl)-8-pyridin-3-yl-4,5-dihydro-1H-pyrrolo[2,3-f]isoquinoline-3-carboxylic acid lactam]
7.59	O=C1NC2(CC2)C2(CC2)c2[nH]c3c(c21)CCc1cnc(-c2ccc(N4CCNCC4)cc2)cc1-3 [Example 220, 2-(1′-Amino-bicyclopropyl-1-yl)-8-(4-piperazin-1-yl-phenyl)-4,5-dihydro-1H-pyrrolo[2,3-f]isoquinoline-3-carboxylic acid lactam hydrochloride]

SMILES	pIC50
O=C1NC2(CC2)C2(CNC2)c2[nH]c3c(c21)CCc1cnc(-c2cccc(F)c2)cc1-3 [Example 180, 2-[3-(1-Amino-cyclopropyl)-azetidin-3-yl]-8-(3-fluoro-phenyl)-4,5-dihydro-1H-pyrrolo[2,3-f]isoquinoline-3-carboxylic acid lactam hydrochloride]	> 8.52
